# Legend:
# [1] = system: NHL cell lines (Granta-519, HBL-2, Jeko-1, Rec-1, Z-138, Karpas-422); test: Trypan blue exclusion viability/proliferation test, NHL cell line panel; format: cell-based; conditions: chemotherapeutic alone (Fludarabine 0.25 μg/ml; Mitoxantrone 0.25 and 0.5 μg/ml), across cell lines
# Text: The following Non-Hodgkin Lymphoma (NHL) cell lines were used in the experiments: Granta-519, HBL-2, Rec-1 and Z-138 as Mantle Cell Lymphoma cell lines and a Karpas-422 as a Diffuse Large B-Cell Lymphoma cell line. All cell lines were obtained from the “Deutsche Sammlung von Mikroorganismen and Zellkulturen GmbH” (DSMZ), Braunschweig, Germany. […] Granta 519, HBL-2, JeKo-1, Rec-1 and Z-138 were cultivated in RPMI-1640 medium with 10% heat-inactivated FCS and 1% Penicillin/Streptomycin. The density of viable cells was determined with BeckmanCoulter ViCell™ Cell Viability Analyzer on the basis of the trypan blue cell exclusion method. The test is based on the principle that viable cells have an intact cell membrane that blocks the uptake of trypan blue whereas dead cells have lost this ability. Therefore viable cells have a transparent cytoplasm whereas dead cells can be identified due to their blue cytoplasm. […] Trypan-blue exclusion tests were used to analyze cell viability. […] These concentrations were determined in pre-experiments on MCL cells • 1. 0.25 μg/ml Fludarabine • 2. 0.25 and 0.5 μg/ml Mitoxantrone 1 ml samples were taken at 0 h, 24 h, 48 h, 72 h every day and the number of viable cells was determined. […] Experiments were independently performed three times.
# [2] = system: human Z138 mantle cell lymphoma xenograft; test: Tumor growth inhibition study in vivo, Z138 xenograft; parameters: species or system SCID beige mice; conditions: day 36 after tumor cell inoculation; antibodies 1 mg/kg i.v. day 22 and 29; fludarabine 40 mg/kg i.p. day 22-25
# Protocol: Antibody buffer included histidine, trehalose and polysorbate 20.
# Cells were co-injected with Matrigel.
# Experimental study protocol was reviewed and approved by local government. […] Continuous health monitoring was carried out on regular basis. Diet food (Provimi Kliba 3337) and water (acidified pH 2.5-3) were provided ad libitum.
# Animals were controlled daily for clinical symptoms and detection of adverse effects.
# The corresponding vehicle was administered on the same days.
# [3] = system: Granta-519 MCL cells; test: Trypan blue exclusion viability/proliferation test, Granta-519; format: cell-based; conditions: mono-exposure 1 μg/ml
# Protocol: (§1) The following Non-Hodgkin Lymphoma (NHL) cell lines were used in the experiments: Granta-519, HBL-2, Rec-1 and Z-138 as Mantle Cell Lymphoma cell lines and a Karpas-422 as a Diffuse Large B-Cell Lymphoma cell line. All cell lines were obtained from the “Deutsche Sammlung von Mikroorganismen and Zellkulturen GmbH” (DSMZ), Braunschweig, Germany.
# (§2) All cell lines were stored according to standard procedures and cultivated at 37° C., 5% CO2- and 95% relative humidity in a CO2 incubator. Granta 519, HBL-2, JeKo-1, Rec-1 and Z-138 were cultivated in RPMI-1640 medium with 10% heat-inactivated FCS and 1% Penicillin/Streptomycin.
# (§3) The density of viable cells was determined with BeckmanCoulter ViCell™ Cell Viability Analyzer on the basis of the trypan blue cell exclusion method. The test is based on the principle that viable cells have an intact cell membrane that blocks the uptake of trypan blue whereas dead cells have lost this ability. Therefore viable cells have a transparent cytoplasm whereas dead cells can be identified due to their blue cytoplasm.
# (§4) Trypan-blue exclusion tests were used to analyze cell viability.
# (§5) These concentrations were determined in pre-experiments on MCL cells • 1. 0.25 μg/ml Fludarabine • 2. 0.25 and 0.5 μg/ml Mitoxantrone
# (§6) 1 ml samples were taken at 0 h, 24 h, 48 h, 72 h every day and the number of viable cells was determined. […]
# [4] = system: Rec-1 MCL cells; test: Trypan blue exclusion viability/proliferation test, Rec-1; format: cell-based; conditions: mono-exposure 1 μg/ml
# Protocol: as §1, §2, §3, §4, §5, §6
# [5] = system: HBL-2 MCL cells; test: Trypan blue exclusion viability/proliferation test, HBL-2; format: cell-based; conditions: mono-exposure 1 μg/ml
# Protocol: as §1, §2, §3, §4, §5, §6
# [6] = system: Jeko-1 MCL cells; test: Trypan blue exclusion viability/proliferation test, Jeko-1; format: cell-based; conditions: mono-exposure 1 μg/ml
# Protocol: as §2, §3, §4, §5
# 1 ml samples were taken at 0 h, 24 h, 48 h, 72 h every day and the number of viable cells was determined. The reduction of cell proliferation was used for a fractional product calculation (synergism >0.1; additive effect −0.1<x<0.1; antagonism <−0.1). Experiments were independently performed three times.
compound,measurement,setting,value
"O=C1c2c(O)ccc(O)c2C(=O)c2c(NCCNCCO)ccc(NCCNCCO)c21 [Mitoxantrone, 1,4-dihydroxy-5,8-bis[2-(2-hydroxyethylamino)ethylamino]-anthracene-9,10-dione]",cell reduction,[1],80-95%
"B-HH6-B-KV1 GE: afucosylated type II anti-CD20 antibody; humanized B-Ly1 IgG1, VH SEQ ID NO: 7 (B-HH6), VL SEQ ID NO: 20 (B-KV1), glycoengineered",tumor growth inhibition compared to the control group,[2],86%
same,cell reduction,[3],65-75%
same,cell reduction,[4],30-45%
same,cell reduction,[5],20-30%
same,cell reduction,[6],5%

# Reference: patent US20150274834A1, “COMBINATION THERAPY OF AN AFUCOSYLATED CD20 ANTIBODY WITH FLUDARABINE AND/OR MITOXANTRONE” (Roche Glycart AG, priority 2009, published 2015)
